# According to patent US12613249B2 (THE ROYAL INSTITUTION FOR THE ADVANCEMENT OF LEARNING / …, priority 2019, dated 2026):
# Where “and” joins values, the source holds several entries; their conditions need not be identical. Equal values may be shown once. Square brackets hold non-standard residues; d marks the D form. Peptide text beside a SMILES is read from it.
# Experiments:
# [1] = Ex-vivo stability in mouse liver S9-fraction, MALDI-TOF MS; assay type: in vitro ADME, C57BL/6 mice
# Description: The stability of D-AIP in mouse plasma, blood and liver S-9 fraction was investigated to ascertain the metabolic resistance towards proteases and enzymatic activities in these matrices. Whole mouse blood obtained from healthy C57BL/6 male and female mice (6 mice in total) were collected in lithium heparin containing tubes, pooled and stored at 4° C. prior to its use. A fraction of the pooled blood was immediately centrifuged at 1500×g for 10 min at 4° C. to obtain the plasma. The whole blood and plasma samples were spiked with PBS (as control) or AIP (L-AIP, D-AIP or sD-AIP respectively) to make a final concentration of 1 ug/mL and incubated at 37° C. Initial samples were withdrawn to represent t=0 prior to incubation and others were withdrawn 1, 3 and 24 h respectively. Fresh mouse liver also obtained from C57BL/6 male and female mice were pooled, homogenized in 0.15 M Potassium chloride (KCl) and centrifuged at 9000×g. The supernatant represents liver homogenate (S-9) fraction which was mixed with other buffers to formulate the liver S-9 mix as previously described (Kolrep et al., 2017, Toxicol In Vitro, 42:161-170). Liver S-9 mix were spiked with AIP to make a final concentration of 1 μg/mL (L-AIP, D-AIP or sD-AIP respectively) and incubated at 37° C. Just after the addition of NADPH, 100 μL aliquot which represents t=0 samples were withdrawn and others were sampled accordingly at predetermined time points. 400 μL of ice cold MeOH was added to the spiked plasma, blood or liver S-9 fraction respectively, to precipitate the microsomal protein. The samples were then vigorously mixed for 30 s to facilitate extraction and centrifuged for 10 minutes at 13000 rpm, the supernatant was subjected to sample clean up by C18 ZipTip (EMD Millipore Corporation), the eluates were spotted with CHCA matrix on the ground steel MALDI-TOF target and analyzed with MALDI-TOF MS. Applying the t=0 peak area as 100% the intensities of the other time points were compared relatively for interpretation. […]
# [2] = Plasma pharmacokinetics after single oral dose, LC-MS; assay type: in vivo, C57BL/6 mice; settings: for CL/F (apparent total clearance from plasma) / λz (elimination rate constant): plasma
# Description: (§1) An internal standard (IS) for the reliable quantification of D-AIP in biological matrices was prepared by dimethylation to produce an analog of D-AIP by using a protocol previously described (Boersema et al., 2009, Nat Protoc, 4:484-494). Standard solutions (1 mg/mL) each of D-AIP and IS were prepared in deionized water and 100% methanol respectively. 100 μL of IS working solution was prepared at 50 ng/ml added to 25 μL of the sample (plasma or brain homogenate). The sample was vortexed for approximately 5 s and let stand for 10 min, then centrifuged at 16,000 g for 10 min. The supernatant was transferred to a 13×100 polypropylene tube and evaporated to dryness at 50° C. under gentle stream of nitrogen. The dry extract was re-suspended with 40 μL of 0.1% (v/v) formic acid (Sigma Aldrich, St-Louis, MO, USA) in deionized water and transferred to an injection vial for analysis.
# (§2) Thermo Scientific TSQ Quantiva Triple Quadrupole mass spectrometer (San Jose, CA, USA) was interfaced with the Thermo Scientific UltiMate 3000 XRS UHPLC system (San Jose, CA, USA) using a pneumatic assisted heated electrospray ion source. Data acquisition and analysis were performed using Xcalibur 4.0 (San Jose, CA, USA).
# (§3) […]radient elution was used with a Thermo Scientific BioBasic-8 column (100×2 mm I.D. 5 μm) operating at 40° C. The initial mobile phase condition consisted of 0.1% formic acid in acetonitrile and 0.1% formic acid in deionized water at a ratio of 5:95, respectively and this ration was maintained for 1 min. A linear gradient was applied from 1 to 5 min up to a ratio of 50:50 and maintained for 1 min. At 6.1 min, the mobile phase composition was reverted to 5:95 and the column was allowed to equilibrate for 7.9 min for a total run time of 14 min. The D-AIP and IS eluted at 4.7 and 4.8 min respectively at a fixed flow rate of 0.2 mL/min. The eluent was diverted to waste for the first minute and last six minutes. Extracted sample (5 μL) was injected and the acquisition time was set to 14 min.
# (§4) The mass spectrometer was interfaced with ultra-high-performance liquid chromatography (UHPLC) system using a pneumatic assisted heated electrospray ion source with detection in positive ion mode using […] (MRM). For proper optimization of the mass spectrometer, standard solutions of D-AIP and IS were infused. The obtained source parameters were 50 and 15 arbitrary units respectively while using nitrogen for the sheath and auxiliary gases. The HESI electrode was set to 3500 V, capillary and vaporizer temperature were both set to 300° C. respectively. The MS/MS parameters were optimized using the doubly charged species. Argon was used as collision gas at a pressure of 2.5 mTorr. The precursor-ion reaction for D-AIP were set to 471.4→[591.8+648.3] and for the IS the MRM transitions were set to 499.4→[425.8+468.8+476.8]
# (§5) Standard solution of D-AIP (1 mg/mL) was diluted in various volumes of deionized water to obtain series of standard working solutions. Calibration standards were prepared by fortifying the mouse plasma and mouse brain homogenate with the standard working solutions at 10% (v/v) to enable analytical concentration range of 1.00 to 1000 ng/ml. The method is linear using a linear regression weighted 1/x analysis, a value of R^2≥0.9979 was obtained for plasma and R^2≥0.9991 for brain homogenate. Samples were injected in duplicate with the calculated in each case and concentrations were processed from the equation obtained from the respective calibration curves using Xcalibur 4.0 software.
# (§6) Animal care and all animal experiments were undertaken with federal guidelines and approval of the Institutional Animal Ethical Committee of McGill University, Montreal, Canada (Protocol Application Number: 2017-7880) and adequate measures were taken to minimize pain or discomfort. […]
# [3] = Brain homogenate concentrations after single oral dose, LC-MS; assay type: in vivo, C57BL/6 mice; settings: for maximum brain concentration / peak brain concentration: brain homogenate; for maximum brain concentration / time of maximum brain concentration: female mice
# Description: as §1, §2, §3, §4, §5, §6
# [4] = female C57BL/6 mice, single oral dose 10 mg/kg
# [5] = female C57BL/6 mice, single oral dose 30 mg/kg
# [6] = female C57BL/6 mice, single oral dose 100 mg/kg
# [7] = male C57BL/6 mice, single oral dose 10 mg/kg
# [8] = male C57BL/6 mice, single oral dose 100 mg/kg
structure (smiles),measurement,setting,value
C[C@H](O)[C@@H](NC(=O)CNC(=O)[C@H](N)CCCNC(=N)N)C(=O)N[C@H](Cc1ccccc1)C(=O)N[C@H](CCC(=O)O)C(=O)NCC(=O)N[C@H](CCCCN)C(=O)N[C@H](Cc1ccccc1)C(=O)O [D-AIP] (H-[dR]G[dT][dF][dE]G[dK][dF]-OH; N-terminus and C-terminus assumed),"stability, MALDI-TOF MS signal (941 m/z)","[1]; mouse liver S9-fraction, 37° C., 24 h",relatively stable over 24 h
same,signal intensity compared to the unincubated sample,"[1]; mouse liver S-9 fraction, after 24 h",three-fold decreased intensity
same,dose relationship of AUC values,"[2]; 10, 30, 100 mg/kg oral, both sexes",linear in both sexes
same,plasma concentration decline,"[2]; both sexes, all doses",reached baseline levels after 24 h
same,CL/F (apparent total clearance from plasma),[2]; [4],30.04 L/h
same,λz (elimination rate constant),[2]; [4],0.06 h⁻¹
same,CL/F (apparent total clearance from plasma),[2]; [5],42.02 L/h
same,λz (elimination rate constant),[2]; [5],0.10 h⁻¹
same,CL/F (apparent total clearance from plasma),[2]; [6],51.54 L/h
same,λz (elimination rate constant),[2]; [6],0.21 h⁻¹
same,CL/F (apparent total clearance from plasma),[2]; [7],35.81 L/h
same,λz (elimination rate constant),[2]; [7],0.15 h⁻¹
same,CL/F (apparent total clearance from plasma),"[2]; male C57BL/6 mice, single oral dose 30 mg/kg",36.02 L/h
same,λz (elimination rate constant),"[2]; male C57BL/6 mice, single oral dose 30 mg/kg, 30 mg/kg",0.21 h^−1 and 0.21. h^−1
same,CL/F (apparent total clearance from plasma),[2]; [8],48.79 L/h
same,λz (elimination rate constant),[2]; [8],0.24 h⁻¹
same,tissue level at time at 4 h,"[3]; C57BL/6, mouse, brain, male mice, highest dose (100 mg/kg oral), after 4 h, read-out: brain concentration during elimination",38.5 ng/g
same,maximum brain concentration,"[3]; single oral dose 10 mg/kg, at 4 h",28.91 ng/g
same,maximum brain concentration,"[3]; single oral dose 30 mg/kg, at 2 h",136.29 ng/g
same,maximum brain concentration,"[3]; single oral dose 100 mg/kg, at 2 h",707.95 ng/g
same,peak brain concentration,"[3]; male mice, single oral dose 10 mg/kg, at 4 h",133.15 ng/g
same,peak brain concentration,"[3]; male mice, single oral dose 30 mg/kg, at 2 h",262.00 ng/g
same,peak brain concentration,"[3]; male mice, single oral dose 100 mg/kg, at 0.5 h",509.24 ng/g
same,crossing of the BBB,"[3]; female and male mice, single oral doses 10, 30, 100 mg/kg",crossed the BBB and reached the brain
same,time of maximum brain concentration,[3]; single oral dose 10 mg/kg,4 h
same,time of maximum brain concentration,[3]; single oral dose 30 mg/kg,2 h
same,time of maximum brain concentration,[3]; single oral dose 100 mg/kg,2 h
same,time of peak brain concentration,"[3]; male mice, single oral dose 10 mg/kg",4 h
same,time of peak brain concentration,"[3]; male mice, single oral dose 30 mg/kg",2 h
same,time of peak brain concentration,"[3]; male mice, single oral dose 100 mg/kg",0.5 h
